# Source: article PMC9136576 (Acta Pharmaceutica Sinica. B, 2021)
# Legend:
# Test in all cases: H2O2 reduction peroxidase assay
# Format in all cases: biochemical
# Conditions in all cases: covalent; […] protein, […] H2O2, […] min preincubation, room temperature
# rhPRDX6 = target: T1, rhPRDX6 (Homo sapiens, UniProt P30041)
# T1 sequence (P30041 2-224): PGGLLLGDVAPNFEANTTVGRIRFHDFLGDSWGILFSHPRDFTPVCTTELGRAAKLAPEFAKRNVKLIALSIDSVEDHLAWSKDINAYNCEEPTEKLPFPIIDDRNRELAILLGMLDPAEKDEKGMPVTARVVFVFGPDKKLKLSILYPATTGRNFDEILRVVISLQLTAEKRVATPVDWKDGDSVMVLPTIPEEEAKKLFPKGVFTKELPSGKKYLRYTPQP
# rhPRDX4 = target: T2, rhPRDX4 (Homo sapiens, UniProt Q13162)
# T2 sequence (Q13162 38-271): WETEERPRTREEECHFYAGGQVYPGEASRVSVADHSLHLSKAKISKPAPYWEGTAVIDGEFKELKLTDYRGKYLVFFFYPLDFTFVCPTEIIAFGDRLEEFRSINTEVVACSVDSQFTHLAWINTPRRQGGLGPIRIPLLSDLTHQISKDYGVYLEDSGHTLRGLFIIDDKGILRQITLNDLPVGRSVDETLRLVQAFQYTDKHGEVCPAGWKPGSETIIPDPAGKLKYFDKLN
# rhPRDX2 = target: T3, rhPRDX2 (Homo sapiens, UniProt P32119)
# T3 sequence (P32119 2-198): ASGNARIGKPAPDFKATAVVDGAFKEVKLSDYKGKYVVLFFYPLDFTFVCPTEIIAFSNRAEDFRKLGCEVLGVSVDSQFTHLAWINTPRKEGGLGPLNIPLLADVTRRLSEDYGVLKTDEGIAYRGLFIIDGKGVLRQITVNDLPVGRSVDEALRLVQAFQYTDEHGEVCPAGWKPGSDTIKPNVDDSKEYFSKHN
compound,measurement,setting,value
CC1=C(O)C(=O)C=C2C1=CC=C1[C@@]2(C)CC[C@@]2(C)[C@@H]3C[C@](C)(C(=O)O)CC[C@]3(C)CC[C@]12C [celastrol],% inhibition at 5 μmol/L,rhPRDX6,celastrol could significantly suppress the peroxidase activity of rhPRDXs for H2O2 reduction
same,% inhibition at 5 μmol/L,rhPRDX4,celastrol could significantly suppress the peroxidase activity of rhPRDXs for H2O2 reduction
same,% inhibition at 5 μmol/L,rhPRDX2,celastrol could significantly suppress the peroxidase activity of rhPRDXs for H2O2 reduction
